Among the data in US20080200454A1, “CARBON-LINKED TETRAHYDRO-PYRAZOLO-PYRIDINE MODULATORS OF CATHEPSIN S” (priority 2007, published 2008) are IC50 values, retold here.

One may read the IC50 as the concentration that gives 50% inhibition.

Chain of Recombinant human cathepsin S (CatS) (P25774 115-331): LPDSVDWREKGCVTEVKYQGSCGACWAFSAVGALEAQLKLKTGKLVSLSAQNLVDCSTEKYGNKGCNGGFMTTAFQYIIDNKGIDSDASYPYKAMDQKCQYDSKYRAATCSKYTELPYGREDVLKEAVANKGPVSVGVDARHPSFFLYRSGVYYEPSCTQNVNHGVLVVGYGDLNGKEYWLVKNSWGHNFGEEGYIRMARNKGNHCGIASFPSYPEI

The first test addresses Recombinant human cathepsin S (CatS) (Homo sapiens, UniProt P25774). As to the kind of experiment: Recombinant human cathepsin S (CatS) inhibition assay, fluorogenic substrate Z-Valine-Valine-Arginine-AMC.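 Further: Baculovirus-expressed CatS in pH 5.0 sodium acetate buffer with DTT and NaCl, fluorescence read each minute over 20 min, inhibition derived from rate slope.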
Settings: not given
In the case of `CCNCc1cc(C#Cc2cc(-c3nn(CCCN4CCCCC4)c4c3CN(S(C)(=O)=O)CC4)ccc2Cl)ccc1Cl` [Example 594, N-[2-Chloro-5-({2-chloro-5-[5-(methylsulfonyl)-1-(3-piperidin-1-ylpropyl)-4,5,6,7-tetrahydro-1H-pyrazolo[4,3-c]pyridin-3-yl]phenyl}ethynyl)benzyl]ethanamine], the IC50 came to 30 nM.
Same read-out and setting: for `NC(=O)N1CCc2c(c(-c3ccc(Cl)c(C#Cc4ccc(Cl)c(CNC5CCCC5)c4)c3)nn2CCCN2CCSCC2)C1` [Example 599, 3-[4-Chloro-3-({4-chloro-3-[(cyclopentylamino)methyl]phenyl}ethynyl)phenyl]-1-(3-thiomorpholin-4-ylpropyl)-1,4,6,7-tetrahydro-5H-pyrazolo[4,3-c]pyridine-5-carboxamide] the value was 30 nM; for `NC(=O)C(=O)N1CCc2c(c(-c3ccc(Cl)c(C#Cc4ccc(Cl)c(CNC5CC5)c4)c3)nn2CCCN2CCCCC2)C1` [Example 600, 2-{3-[4-Chloro-3-({4-chloro-3-[(cyclopropylamino)methyl]phenyl}ethynyl)phenyl]-1-(3-piperidin-1-ylpropyl)-1,4,6,7-tetrahydro-5H-pyrazolo[4,3-c]pyridin-5-yl}-2-oxoacetamide], 30 nM.
On to `NC(=O)C(=O)N1CCc2c(c(-c3ccc(Cl)c(C#Cc4ccc(Cl)c(CN5CCOCC5)c4)c3)nn2CCCN2CCCCC2)C1` [Example 601, 2-[3-(4-Chloro-3-{[4-chloro-3-(morpholin-4-ylmethyl)phenyl]ethynyl}phenyl)-1-(3-piperidin-1-ylpropyl)-1,4,6,7-tetrahydro-5H-pyrazolo[4,3-c]pyridin-5-yl]-2-oxoacetamide], for which the IC50 was determined as 30 nM.
`NC(=O)N1CCc2c(c(-c3ccc(Cl)c(C#Cc4ccc(Cl)c(CN5CCOCC5)c4)c3)nn2CCCN2CCCCC2)C1` [Example 602, 3-(4-Chloro-3-{[4-chloro-3-(morpholin-4-ylmethyl)phenyl]ethynyl}phenyl)-1-(3-piperidin-1-ylpropyl)-1,4,6,7-tetrahydro-5H-pyrazolo[4,3-c]pyridine-5-carboxamide]: the IC50 came out at 40 nM.
On to `CS(=O)(=O)N1CCc2c(c(-c3ccc(Cl)c(C#Cc4ccc(C(=O)NCCN5CCOCC5)cc4)c3)nn2CCCN2CCCCC2)C1` [Example 608, 4-({2-Chloro-5-[5-(methylsulfonyl)-1-(3-piperidin-1-ylpropyl)-4,5,6,7-tetrahydro-1H-pyrazolo[4,3-c]pyridin-3-yl]phenyl}ethynyl)-N-(2-morpholin-4-ylethyl)benzamide], for which the IC50 came to 70 nM.
Still for that read-out and setting: for `NC(=O)N1CCc2c(c(-c3ccc(Cl)c(C#Cc4ccc(C(=O)NC[C@@H]5CCCN5)cc4)c3)nn2CCCN2CCSCC2)C1` [Example 609, 3-{4-Chloro-3-[(4-{[(2S)-pyrrolidin-2-ylmethyl]carbamoyl}phenyl)ethynyl]phenyl}-1-(3-thiomorpholin-4-ylpropyl)-1,4,6,7-tetrahydro-5H-pyrazolo[4,3-c]pyridine-5-carboxamide] the value was 70 nM.
For the molecule `CNCCCNC(=O)c1ccc(C#Cc2cc(-c3nn(CCCN4CCOC[C@@H]4C)c4c3CN(C(=O)C(N)=O)CC4)ccc2Cl)cc1` [Example 613, 4-{[5-(5-[Amino(oxo)acetyl]-1-{3-[(3S)-3-methylmorpholin-4-yl]propyl}-4,5,6,7-tetrahydro-1H-pyrazolo[4,3-c]pyridin-3-yl)-2-chlorophenyl]ethynyl}-N-[3-(methylamino)propyl]benzamide], the IC50 was determined as 40 nM.

The same test, now with this note: CatS IC50.
With `NC(=O)C(=O)N1CCc2c(c(-c3ccc(Cl)c(C#Cc4ccc(Cl)c(CNC5CCCC5)c4)c3)nn2CCCN2CCCCC2)C1` [Example 595, 2-{3-[4-Chloro-3-({4-chloro-3-[(cyclopentylamino)methyl]phenyl}ethynyl)phenyl]-1-(3-piperidin-1-ylpropyl)-1,4,6,7-tetrahydro-5H-pyrazolo[4,3-c]pyridin-5-yl}-2-oxoacetamide], the IC50 turned out to be 10 nM.
On the same count and under the same terms, for `NC(=O)N1CCc2c(c(-c3ccc(Cl)c(C#Cc4ccc(Cl)c(CNC5CC5)c4)c3)nn2CCCN2CCCCC2)C1` [Example 596, 3-[4-Chloro-3-({4-chloro-3-[(cyclopropylamino)methyl]phenyl}ethynyl)phenyl]-1-(3-piperidin-1-ylpropyl)-1,4,6,7-tetrahydro-5H-pyrazolo[4,3-c]pyridine-5-carboxamide] the value was 30 nM.
For `CS(=O)(=O)N1CCc2c(c(-c3ccc(Cl)c(C#Cc4ccc(Cl)c(CNC5CCCC5)c4)c3)nn2CCCN2CCCCC2)C1` [Example 597, N-[2-Chloro-5-({2-chloro-5-[5-(methylsulfonyl)-1-(3-piperidin-1-ylpropyl)-4,5,6,7-tetrahydro-1H-pyrazolo[4,3-c]pyridin-3-yl]phenyl}ethynyl)benzyl]cyclopentanamine], the IC50 was 40 nM.
On the same count and under the same terms, with `C[C@H]1COCCN1CCCn1nc(-c2ccc(Cl)c(C#Cc3ccc(Cl)c(C(=O)NCC4CNC4)c3)c2)c2c1CCN(C(=O)C(N)=O)C2` [Example 598, 5-{[5-(5-[Amino(oxo)acetyl]-1-{3-[(3S)-3-methylmorpholin-4-yl]propyl}-4,5,6,7-tetrahydro-1H-pyrazolo[4,3-c]pyridin-3-yl)-2-chlorophenyl]ethynyl}-N-(azetidin-3-ylmethyl)-2-chlorobenzamide] the figure was 30 nM; with `CS(=O)(=O)N1CCc2c(c(-c3ccc(Cl)c(C#Cc4ccc(Cl)c(CNC5CC5)c4)c3)nn2CCCN2CCCCC2)C1` [Example 603, N-[2-Chloro-5-({2-chloro-5-[5-(methylsulfonyl)-1-(3-piperidin-1-ylpropyl)-4,5,6,7-tetrahydro-1H-pyrazolo[4,3-c]pyridin-3-yl]phenyl}ethynyl)benzyl]cyclopropanamine], 50 nM; with `CS(=O)(=O)N1CCc2c(c(-c3ccc(Cl)c(C#Cc4ccc(Cl)c(CN5CCOCC5)c4)c3)nn2CCCN2CCCCC2)C1` [Example 604, 3-(4-Chloro-3-{[4-chloro-3-(morpholin-4-ylmethyl)phenyl]ethynyl}phenyl)-5-(methylsulfonyl)-1-(3-piperidin-1-ylpropyl)-4,5,6,7-tetrahydro-1H-pyrazolo[4,3-c]pyridine], 80 nM.
As to `NC(=O)N1CCc2c(c(-c3ccc(Cl)c(C#Cc4ccc(Cl)c(CNC5CC5)c4)c3)nn2CCCN2CCSCC2)C1` [Example 605, 3-[4-Chloro-3-({4-chloro-3-[(cyclopropylamino)methyl]phenyl}ethynyl)phenyl]-1-(3-thiomorpholin-4-ylpropyl)-1,4,6,7-tetrahydro-5H-pyrazolo[4,3-c]pyridine-5-carboxamide], the IC50 came out at 40 nM.
Regarding `NC(=O)N1CCc2c(c(-c3ccc(Cl)c(C#Cc4ccc(Cl)c(CN5CCOCC5)c4)c3)nn2CCCN2CCSCC2)C1` [Example 606, 3-(4-Chloro-3-{[4-chloro-3-(morpholin-4-ylmethyl)phenyl]ethynyl}phenyl)-1-(3-thiomorpholin-4-ylpropyl)-1,4,6,7-tetrahydro-5H-pyrazolo[4,3-c]pyridine-5-carboxamide], the IC50 was 40 nM.
Same read-out and setting: for `NC(=O)N1CCc2c(c(-c3ccc(Cl)c(C#Cc4ccc(C(=O)NCCN5CCOCC5)cc4)c3)nn2CCCN2CCSCC2)C1` [Example 607, 3-[4-Chloro-3-({4-[(2-morpholin-4-ylethyl)carbamoyl]phenyl}ethynyl)phenyl]-1-(3-thiomorpholin-4-ylpropyl)-1,4,6,7-tetrahydro-5H-pyrazolo[4,3-c]pyridine-5-carboxamide] the value was 50 nM.
As for `C[C@H]1COCCN1CCCn1nc(-c2ccc(Cl)c(C#Cc3ccc(C(=O)NC[C@@H]4CCCN4)cc3)c2)c2c1CCN(C(=O)C(N)=O)C2` [Example 610, 4-{[5-(5-[Amino(oxo)acetyl]-1-{3-[(3S)-3-methylmorpholin-4-yl]propyl}-4,5,6,7-tetrahydro-1H-pyrazolo[4,3-c]pyridin-3-yl)-2-chlorophenyl]ethynyl}-N-[(2S)-pyrrolidin-2-ylmethyl]benzamide], the IC50 worked out at 30 nM.
Still for that read-out and setting: for `CS(=O)(=O)N1CCc2c(c(-c3ccc(Cl)c(C#Cc4ccc(C(=O)NC[C@@H]5CCCN5)cc4)c3)nn2CCCN2CCCCC2)C1` [Example 611, 4-({2-Chloro-5-[5-(methylsulfonyl)-1-(3-piperidin-1-ylpropyl)-4,5,6,7-tetrahydro-1H-pyrazolo[4,3-c]pyridin-3-yl]phenyl}ethynyl)-N-[(2S)-pyrrolidin-2-ylmethyl]benzamide] the value was 100 nM; for `CNCCCNC(=O)c1ccc(C#Cc2cc(-c3nn(CCCN4CCSCC4)c4c3CN(C(N)=O)CC4)ccc2Cl)cc1` [Example 612, 3-{4-Chloro-3-[(4-{[3-(methylamino)propyl]carbamoyl}phenyl)ethynyl]phenyl}-1-(3-thiomorpholin-4-ylpropyl)-1,4,6,7-tetrahydro-5H-pyrazolo[4,3-c]pyridine-5-carboxamide], 80 nM.
On to `CNCCCNC(=O)c1ccc(C#Cc2cc(-c3nn(CCCN4CCCCC4)c4c3CN(S(C)(=O)=O)CC4)ccc2Cl)cc1` [Example 614, 4-({2-Chloro-5-[5-(methylsulfonyl)-1-(3-piperidin-1-ylpropyl)-4,5,6,7-tetrahydro-1H-pyrazolo[4,3-c]pyridin-3-yl]phenyl}ethynyl)-N-[3-(methylamino)propyl]benzamide], for which the IC50 is 60 nM.
On the same count and under the same terms, with `CN(C)Cc1cc(C#Cc2cc(-c3nn(CCCN4CCSCC4)c4c3CN(C(N)=O)CC4)ccc2Cl)ccc1Cl` [Example 615, 3-[4-Chloro-3-({4-chloro-3-[(dimethylamino)methyl]phenyl}ethynyl)phenyl]-1-(3-thiomorpholin-4-ylpropyl)-1,4,6,7-tetrahydro-5H-pyrazolo[4,3-c]pyridine-5-carboxamide] the figure was 30 nM.
Regarding `C[C@H]1COCCN1CCCn1nc(-c2ccc(Cl)c(C#Cc3ccc(Cl)c(CN(C)C)c3)c2)c2c1CCN(C(=O)C(N)=O)C2` [Example 616, 2-(3-[4-Chloro-3-({4-chloro-3-[(dimethylamino)methyl]phenyl}ethynyl)phenyl]-1-{3-[(3S)-3-methylmorpholin-4-yl]propyl}-1,4,6,7-tetrahydro-5H-pyrazolo[4,3-c]pyridin-5-yl)-2-oxoacetamide], the IC50 was 12 nM.
